These results are taken from patent publication US10653676B2 (Dana-Farber Cancer Institute, Inc., priority 2010, dated 2020).

The target of one data set is T1, USP1/UAF1 complex (Homo sapiens, UniProt O94782, G670A/G671A).
T1 construct: This modified full length USP1 clone was PCR amplified and subcloned into pFastBac-HT vectors; His tag (N); made in house; host or cells: Sf9 insect cells (baculovirus)
In words: high throughput screening for inhibitors of USP1 deubiquitinating activity. The following applies: library of approximately 150,000 compounds. It is filed as biochemical. As to the method: The ubiquitin-Rho based enzyme assay for high throughput screening was established in a 384-well format. The reaction buffer containing and USP1/UAF1 complex were added in 384 well plates using automated liquid handling robot-Bio-Tek Microfill (Bio-Tek Instrments Inc., VT), followed by addition of the compounds (in DMSO) from the compound library plates to wells using a pin transfer robotic system at a final concentration of 10 μM. The reaction was composed of 0.1 nM purified USP1/UAF complex, 75 nM ubiquitin Rhodamine (Ub-Rho, Boston Biochem, U-600) and 2 μM ubiquitin. Fluorescence was monitored in a FluoStar Galaxy Fluorometer (BMG Labtech). Fluorescence emission at 535 nm (λex=485 nm) was measured in an automated plate reader Envision 2 (Perkin Elmer, Mass.).
In order to develop a highly sensitive assay with easy readout for high throughput detection, the fluorogenic compound Ubiquitin-7-amido-4-methylcoumarin (AMC-Ub, Boston Biochem) was used as a substrate for USP1/UAF1 enzyme complex. USP1 catalyzes the cleavage of AMC-Ub, releasing free AMC moiety, which leads to increase in fluorescence emission at 460 nm (λex=380 nm). Dang et al. (1998) Biochemistry 37:1868-79. Catalytic activity towards AMC-Ub increases 35 fold compared to USP1 enzyme alone. Initial enzyme assay development was performed in 96-well plates with 100 μl reaction volume containing 20 mM HEPES-KOH, 0.1 mg/ml ovalbumin (Sigma), 0.5 mM EDTA, and 10 mM DTT. 2.5 nM USP1/UAF1 enzyme complex was mixed with the reaction buffer, incubated at 37° C. for 10 minutes and then 0.3 μM AMC-Ub was added. Fluorescence was measured using a Fluostar Galaxy Fluorometer (BMG Labtech Inc.).
Once the preliminary enzyme assay was established in 96-well format, it was optimized for 384 wells for high throughput screening (HTS) of inhibitors. The major points to be considered were the volume of the reaction and amount of AMC-Ub substrate to be used in the assay. Since the price of AMC-Ub is very high, in order to make it a feasible assay for HTS, lowest workable amount of the AMC conjugate was used. Reaction volume was minimized to 30 μl in order to meet the recommendation of ICCB-L screening facility (Harvard). In the preliminary optimization experiment, a series of pilot experiments were performed with varying AMC-Ub concentrations (0.025 μM to 0.2 μM), along with the varying concentration of USP1/UAF1 complex (0.2 nM to 3.2 nM). […] After incubating the enzyme and buffer at 37° C. for 10 minutes, AMC-Ub was added and fluorescence emission at 460 nm (λex=380 nm) was measured in an automated plate reader Envision 2 (Perkin Elmer). Fluorescence reading for all time points up to one hour was noted and the data for different AMC-Ub concentration range was plotted with each USP1/UAF1 enzyme complex concentration. […]

Data set [1] relates to HeLa cells. In words: sensitization of HeLa cells to mitomycin C, cell survival by redox dye. It is filed as cell-based, human. The note with it: 20 micromolar compound; MMC 0, 200, or 500 nM; FIG. 4. As to the method:
HeLa cells were pretreated for six hours with selected concentrations (0, 200, or 500 nM) of mitomycin C (MMC), washed, then exposed to selected concentrations (0, 10, or 20 μM) of the compound of Formula IV (527) for eight hours. Cell survival was measured by redox dye.

The subject of data set [2] is HeLa cells, integrated with the NHEJ reporter. In words: NHEJ reporter assay. The format is cell-based, human. The following applies: same condition as HR assay; FIG. 8B. The method, then: (§1) FIG. 8 is a composite figure showing that C527 inhibits homologous recombination repair. […] U2OS-DRGFP cells were transfected with I-SCE-I and then exposed to C527 at the indicated concentration for 24 h. Cells were then subjected to flow cytometry analysis. The percentage of GFP positive cells was normalized by solvent vehicle treated group. […] HeLa cells, integrated with the NHEJ reporter, were treated with C527 and analyzed as described in (FIG. 8A). […] HeLa cells were pre-treated with DMSO or C527 at the indicated concentration and then exposed to camptothecin (CPT) for 1 hr. RAD51 foci were detected using immunofluorescence.
Disruption of FANCD2 monoubiquitination or of USP1 activity (Oestergaard V H, Langevin F, Kuiken H J, et al. Deubiquitination of FANCD2 is required for DNA crosslink repair. Mol Cell. 2007; 28:798-809; Kim J M, Parmar K, Huang M, et al. Inactivation of murine Usp1 results in genomic instability and a Fanconi anemia phenotype. Dev Cell. 2009; 16:314-320) results in decreased HR. A gene conversion assay was used to examine the effect of C527 on cellular HR activity (FIG. 8A).

Data set [3] deals with HeLa cells. The data set is described as follows: camptothecin-induced RAD51 and H2AX foci formation, immunofluorescence. It is filed as cell-based, human. The following applies: camptothecin for 1 hr after pre-treatment; FIG. 8C. The method, then: as §1
Cells were pre-extracted with extraction buffer (0.25% Triton-X100 in 200 mM HEPES at pH 7.4, 50 mM NaCl, 3 mM MgCl2 and 300 mM sucrose) on ice for 2 min prior to fixation with 4% paraformaldehyde. RAD51 foci were detected using anti-RAD51 antibody (Santa Cruz Biotechnology) and visualized using Alexa Fluor 488-conjugated secondary antibody. The quantification of cells with RAD51 foci was performed by counting the number of cells with RAD51 foci. At least 200 cells were counted from each sample. Data are represented as mean±SD from three independent experiments.
Camptothecin activated the assembly of RAD51 and H2AX foci.

T1 sequence (O94782 whole entry G670A/G671A): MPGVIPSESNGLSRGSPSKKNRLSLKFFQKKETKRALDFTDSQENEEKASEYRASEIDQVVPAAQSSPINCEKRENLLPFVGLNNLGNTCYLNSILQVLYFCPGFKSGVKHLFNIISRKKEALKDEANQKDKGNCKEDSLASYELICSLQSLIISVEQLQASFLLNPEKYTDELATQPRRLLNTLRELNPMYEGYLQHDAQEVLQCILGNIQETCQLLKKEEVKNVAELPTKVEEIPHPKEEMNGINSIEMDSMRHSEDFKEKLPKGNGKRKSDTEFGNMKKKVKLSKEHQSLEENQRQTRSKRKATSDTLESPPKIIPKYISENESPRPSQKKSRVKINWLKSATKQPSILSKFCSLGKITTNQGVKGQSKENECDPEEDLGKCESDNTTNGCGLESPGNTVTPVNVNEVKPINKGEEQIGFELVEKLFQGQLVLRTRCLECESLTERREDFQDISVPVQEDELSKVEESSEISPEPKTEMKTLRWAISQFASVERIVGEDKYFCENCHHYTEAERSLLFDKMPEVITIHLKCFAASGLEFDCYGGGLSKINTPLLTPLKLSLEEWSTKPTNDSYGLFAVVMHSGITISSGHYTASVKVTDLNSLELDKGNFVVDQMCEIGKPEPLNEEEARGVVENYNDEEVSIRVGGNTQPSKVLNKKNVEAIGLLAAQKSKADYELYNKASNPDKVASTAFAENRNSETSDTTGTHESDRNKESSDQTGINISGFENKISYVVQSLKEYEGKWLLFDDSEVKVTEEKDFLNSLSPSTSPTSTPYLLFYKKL
T1 sequence (Q8TAF3 whole entry partner): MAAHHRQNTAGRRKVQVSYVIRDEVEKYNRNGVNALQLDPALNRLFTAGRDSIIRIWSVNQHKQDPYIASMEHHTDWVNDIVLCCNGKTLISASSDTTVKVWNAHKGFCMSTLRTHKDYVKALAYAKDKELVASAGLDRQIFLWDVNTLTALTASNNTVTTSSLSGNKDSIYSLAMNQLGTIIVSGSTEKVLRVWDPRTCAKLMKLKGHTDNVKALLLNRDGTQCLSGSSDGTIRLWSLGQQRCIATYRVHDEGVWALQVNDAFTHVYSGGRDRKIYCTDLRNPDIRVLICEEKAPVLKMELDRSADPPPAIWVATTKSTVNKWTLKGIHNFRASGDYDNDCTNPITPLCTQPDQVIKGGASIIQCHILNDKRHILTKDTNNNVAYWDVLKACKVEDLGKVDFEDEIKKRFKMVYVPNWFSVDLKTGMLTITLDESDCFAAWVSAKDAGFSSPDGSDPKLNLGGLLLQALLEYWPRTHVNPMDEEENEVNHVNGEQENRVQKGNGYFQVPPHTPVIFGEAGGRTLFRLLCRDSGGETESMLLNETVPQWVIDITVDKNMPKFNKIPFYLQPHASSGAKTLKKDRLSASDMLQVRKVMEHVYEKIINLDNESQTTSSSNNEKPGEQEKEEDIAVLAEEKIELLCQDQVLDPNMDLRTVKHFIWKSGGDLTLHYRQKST

As to `O=C1c2ccccc2C(=O)c2oc(-c3ccc(F)cc3)nc21` [Formula IV (527)], the “identified as inhibitor of USP1 in initial in vitro screening” value at USP1/UAF1 complex was “inhibitors of USP1”. For the same compound, the “sensitization to the cytotoxic effects of MMC” value with HeLa cells [1] was “sensitization of the HeLa cells”. Moreover, the “non-homologous end joining (NHEJ) activity” value in data set [2] is given as “did not inhibit”. In the data set with HeLa cells [3], the H2AX foci formation entry is “non-detectable effect” and the RAD51 foci formation entry is given as “inhibited RAD51 foci formation”.
